In patent US20230075822A1, “USE OF CASTALAGIN OR ANALOGS THEREOF FOR ANTI-CANCER EFFICACY AND TO INCREASE THE RESPONSE TO IMMUNE CHECKPOINT INHIBITORS” (THE ROYAL INSTITUTION FOR THE ADVANCEMENT OF …, priority 2020, published 2023):

How the values were obtained:
[1] = system: gut microbiota; assay: 16S rRNA gene sequencing of mouse feces (microbiome profiling); type: in vivo, mice
Description: Genomic DNA extraction from mouse feces. Total genomic DNA from fecal pellets was extracted using ZymoBIOMICS DNA Miniprep Kit (Zymo Research Corporation) and immediately stored at -80° C. This protocol involves a bead beating step to ensure full recovery of bacterial DNA. DNA concentration and quality were measured using the Nanodrop ND-1000 (ThermoFisher).
16S rRNA gene sequence processing and analysis mouse feces samples. Isolated DNA was analyzed using 16S ribosomal RNA (rRNA) gene sequence to investigate the microbial composition in fecal samples. The V3—V4 region of the 16S rDNA gene was amplified by PCR using primers Bakt_341F (5′-CCTACGGGNGGCWGCAG-3′, SEQ ID NO:5) and Bakt_805R (5′-[…]-3′, SEQ ID NO:6) adapted to incorporate the transposon-based Illumina Nextera adapters (Illumina) and a sample barcode sequence allowing multiplexed paired-end sequencing. PCR mixtures contained 1× Q5 buffer (NEB), 1× Q5 Enhancer (NEB), 200 μM dNTP (VWR International), 0.2 μM of forward and reverse primer (Integrated DNA Technologies), 1 unit of Q5 (NEB) and 1 μl of template DNA in a 50 μl reaction. The PCR cycling conditions consisted of an initial denaturation of 30 sec at 98° C., followed by a first set of 15 cycles (98° C. for 10 sec, 55° C. for 30 sec and 72° C. for 30 sec), then by a second step of 15 cycles (98° C. for 10 sec, 65° C. for 30 sec and 72° C. for 30 sec) and final elongation of 2 min at 72° C. before cooling to 4° C. indefinitely. PCR products were purified using 35 pl of magnetic beads (AxyPrep Mag PCR Clean up kit; Axygen Biosciences) per 50 μl PCR reaction. Amplifications were controlled on a Bioanalyzer 2100 using DNA 7500 chips (Agilent Technologies). Samples were pooled at an equimolar ratio; the pool was repurified as described before and checked for quality on a Bioanalyzer 2100 using a DNA high sensitivity chip. The pool was quantified using picogreen (Life Technologies) and loaded on a MiSeq system (Illumina). High-throughput sequencing was performed at the IBIS (Institut de Biologie Integrative et des Systèmes—Université Laval).
Gene sequence processing and analysis was performed using R v4.0.0. DADA2R package v1.16.0 (Callahan et al., Nat Methods. 2016 July; 13(7):581-3) was used to generate exact amplicon sequence variants (ASV) of each sample from raw amplicon sequences. Sequences were corrected for Illumina amplicon sequence errors, de-replicated, chimera removed, and merged of paired-end reads with 260-bases for forward reads and 190-bases for reverse reads. The taxonomy assignment was performed against the SILVA reference database v138 (Quast et al., Nucleic Acids Res. 2013 January; 41(Database issue):D590-6). Archea and Eukaryota residual sequences were removed. Downstream analyses were performed at the genus-level through phyloseq R package v1.32.0 (McMurdie et al., PLoS One. 2013 Apr 22;8(4):e61217). The alpha-diversity was estimated with the Shannon diversity index and the Inverse Simpson index. These indexes were compared between groups using Mann-Whitney tests.
Statistical analysis. Statistical analysis was performed using R v4.0.0. The Mann-Whitney U test was used to determine significant differences among the different groups using alpha-diversity which show the diversity in each individual sample measures. DESeq2 (Love et al., Genome Biol. 2014;15(12):550) was used to perform differential abundances analysis at the genus-level. […]

[2] = system: MCA-205 sarcoma; assay: MCA-205 tumor model in germ-free conditions; type: in vivo, C57BL/6 mice; settings: castalagin 0.85 mg/kg per mouse
Description: FIG. 9A is a graph showing the effects of castalagin administration at the standard concentration (0.85 mg/kg per mouse) in germ-free conditions on tumor size in the murine MCA-205 tumor model.
Murine studies. All animal studies were approved by the Institutional Animal Care Committee (CIPA) and carried out in compliance with the Canadian Council on Animal Care guidelines. Murine experiments were conducted using seven-week-old female C57BL/6 mice, obtained from Charles River, Canada. Germ-free female C57BL/6 mice were purchased from the International Microbiome Centre Germ-Free Facility (University of Calgary, Canada) and maintained at the CR-CHUM Germ-Free Facility.
Subcutaneous model of MCA-205 sarcoma and E0771 breast cancer. Syngeneic C57BL/6 mice were implanted with 0.8×10^6 MCA-205 or 0.5×10^6 E0771 subcutaneously. When tumors reached 20 to 35 mm^2 in size, mice were treated four times (or two times for flow cytometry analysis, see section below) intraperitoneally (i.p.) every three day with anti-PD-1 monoclonal antibody (mAb) (250 μg/mouse; clone RMP1-14, BioXcell) or isotype control (clone 2A3, BioXcell). […] In the control group mice received daily oral gavage with water (100 μL) Tumor area was routinely monitored every three days by means of a caliper. […]

Structure (SMILES): O=C1OC[C@H]2OC(=O)c3cc(O)c(O)c(O)c3-c3c(O)c(O)c(O)c4c3C(=O)O[C@H]([C@H]3OC(=O)c5c-4c(O)c(O)c(O)c5[C@@H]3O)[C@@H]2OC(=O)c2cc(O)c(O)c(O)c2-c2c1cc(O)c(O)c2O [castalagin, Castalagin]
- beta-diversity (Bray-Curtis) ([1]; MCA-205 model, SPF mice, castalagin or water gavage): significant clusters formation observed with beta-diversity
- differential abundance, taxa enriched ([1]; MCA-205 model, SPF mice, castalagin/IsoPD-1 vs water/IsoPD-1): enrichment of Akkermensia, Ruminococcaceae UBA1819, Ruminococcus, Staphylococcus, Escherichia/shigella, Blautia and Alistipes
- alpha-diversity (observed genus) ([1]; MCA-205 model, SPF mice, castalagin/isoPD-1, post-castalagin vs baseline): increased alpha-diversity
- relative abundance, genera increased ([1]; NR FMT experiment, castalagin groups relative to water groups): increase of the relative abundance after 16s sequencing analysis of Ruminococcus, Alistepes, Christensenellaceae R7 group, Paraprevotella
- relative abundance of Lachnoclostridium ([1]; NR FMT experiment, castalagin vs water groups): no difference of Lachnoclostridium was observed
- tumor size [2]: abrogated castalagin antitumor effect
